Reference: US20250248393A1, “METHOD OF RELEASING A SEMIOCHEMICAL IN THE ENVIRONEMENT BY PASSIVE DIFFUSION, SYSTEM AND MEANS, ESPECIALLY STICKS, TO THIS END, AND USES THEREOF” (SIGNS, priority 2024, published 2025)

Tests used:
Type in all cases: physicochemical
[1] = F3 migration along the stick (top 1 cm, GC/MS); conditions: F3, five sticks
Protocol: Three devices containing 40 mL of F3 feline facial pheromone product and five […] sticks were prepared and left on diffusion. A t=1 day, T=3 days, T=10 days, T=15 days and T=22 days after preparation of the devices, one stick was taken on each device and 1 cm of the top of each stick was cut, then extracted with acetone 1 h in an ultrasonic bath and analysed by gas chromatography coupled with mass spectrometry (GC/MS). The same analytical parameters were used for the study C with a liquid injection (injected quantity: […]) Blank analysis and matrix blank analysis were also performed.

[2] = Ratios of molecules diffused through the sticks over time
Protocol: Furthermore, as small molecules diffuse more, it happens that they lose intensity over the course of the study, so the ratios are different 24 hours after immersing the sticks in the liquid and 21 days later. Here are the ratios for each pheromone studied at the start of the study and at the end.

[3] = F3 direct diffusion, 120 mL and six sticks; conditions: 6 sticks
Protocol: To that purpose, three devices containing 120 mL of F3 feline facial pheromone product and six rattan sticks were prepared and left on diffusion as shown on FIG. 43.
The direct diffusion of F3 pheromone was then studied following the same protocol as the protocol of the first study shown in Section E/herein.
Each measuring day, the flasks were weighed, and the volume of the liquid was checked visually: see FIGS. 55 and 56.

[4] = F3 direct diffusion and mass loss, 40 mL and eight sticks with a refill; conditions: F3, eight sticks
Protocol: To that purpose, three devices containing 40 mL of F3 feline facial pheromone product and eight rattan sticks were prepared and left on diffusion. Every Monday, Wednesday and Friday, the diffusion of the pheromone in air was checked by analysis by gas chromatography coupled with mass spectrometer (GC/MS) and SPME (solid phase microextraction) until there was no liquid left. Then, the solution was refilled and a second study of the diffusion of the pheromone was performed.
Experimentally, the studied device was taken and placed into a closed space under identical conditions than in section E/, and for analyzing the same data.
Each measuring day, the devices were weighed and the level of the solution in the flask was controlled.

[5] = F3P PCDS indirect diffusion, pheromone remaining in solution (GC/FID)
Protocol: For this study, three diffusers each containing 40 mL of product and 6 capillaries were prepared and diffused. Once a week, on Wednesdays, the amount of pheromone remaining in the solution was monitored by gas chromatography analysis coupled to a flame ionization detector (GC/FID) until no liquid remained. The percentage of pheromone was measured weekly.
Next, the percentage of pheromone was checked by external calibration using a GC/FID calibration range.
Analyses were carried out by gas chromatography coupled to a flame ionization detector. The instrument was a Shimadzu GC 2025® with an AOC20i® autosampler. Separation was performed on an Agilent DB-FFAP® column (30 m×0.25 mm×0.25 μm, stationary phase: nitroterephthalic acid-modified polyethylene glycol). The temperature of the gas chromatography oven was initially maintained at 140° C. for 2 minutes, then increased at 10° C./min to 250° C. and left at this temperature for 3 minutes. The carrier gas was helium at 1 mL/min. Analyses were performed in split mode using a split/splitless injector (temperature: 250° C., split: 1:50).
The detector used was a flame ionization detector. The detector temperature was 250° C. with an air flow rate of 400 mL/min, hydrogen 40 mL/min and nitrogen 30 mL/min.
For this purpose, a calibration range was prepared for each analysis. […]

[6] = F3 block stability study in sodium stearate aqueous gel (GC-MS); conditions: after 3 months
Protocol: Aqueous sodium stearate gel is a method used by SIGNS for several of the pheromones it markets (pork, poultry, rabbit). The sodium stearate matrix is cast at high temperature (60° C.) and contains 2% pheromone. In this study, matrix samples are taken by coring, and the active ingredients are extracted by apolar solvent, using the SIGNS-validated quality control method. Extracts are analyzed by GC-MS. […] Given this observation, formula F3 cannot be used in blocks for passive diffusion, so a change of galenic formulation is necessary.

[7] = F3 sticks device, direct diffusion, 40 mL and four sticks (SPME GC/MS); conditions: four sticks
Protocol: Three devices containing 40 mL of F3 feline facial pheromone product and four rattan sticks were prepared and left on diffusion. Every Monday, Wednesday and Friday, the diffusion of the pheromone in air was checked by analysis by gas chromatography coupled with mass spectrometer (GC/MS) and SPME (solid phase microextraction) until there is no liquid left (about 22 days).
To that purpose, the studied device was taken and placed into a closed space (in our case an aquarium turned over) containing the SPME fiber as shown on FIG. 24.
The SPME fiber was left for two hours to give the time for the molecules to adsorb on the fiber, then the fiber was injected into the GC/MS instrument for analysis.
Analysis were carried out using gas chromatography with mass spectrometer. The instrument was a GCMS QP2010SE® from Shimadzu with an AOC6000® Autosampler. The separation was performed on a ZB-5 MS® column (30 m×0.25 mm×0.25 μm, stationary phase: 95% Dimethylpolysiloxane, 5% Phenyl-Arylene) from Phenomenex. The GC oven temperature was initially held at 100° C. for 1 minute then increased at a pace of 10° C./min to 120° C. and left at this temperature for 3 minutes. Finally, the oven temperature was increased at a pace of 10° C./min to 240° C. and left at this temperature for 10 minutes. The carrier gas was helium at 1 mL/min. Analysis were performed in split mode using a split/splitless injector (Temperature: 250° C., split: 1:20). The SPME fiber was directly injected into the injector and left for 30 minutes. Separated molecules were detected using a mass spectrometer which was operated in electron impact ionization (EI) in both full scan (FS) and single ion monitoring (SIM) modes, so called FASST (Fast Automated SCAN/SIM type) mode. The interface temperature was set at 300° C. and electron impact source temperature at 250° C. The analyser was a quadrupole.
For the measurement of the relative quantity of active ingredient spreading in air, the area of the chromatographic peak corresponding to the compound was measured using Shimadzu GCMS-Solution software.

In the case of `COC(=O)CCCCCC(=O)OC` [dimethyl pimelate, dimethyl heptanedioate], the “quantity on the top of the stick over time” value [1] is reported as “decreased significantly between 5 and 10 days before stabilising”, the “relative quantity on the top of the stick” value [1] is reported as “less present” and the “ratio of molecules diffused through the sticks” value (from here on “ratio”) ([2]; F3, 24 h after immersion of sticks) is reported as 70 % (w/w). For the same compound, the “ratio” value ([2]; F3, 21 days after immersion of sticks (empty tank)) was 48 % (w/w), the “ratio” value ([2]; F3P, 24 h after immersion of the sticks) was 56 % (w/w) and the “ratio” value ([2]; F3P, 21 days after immersion of sticks (empty tank)) was 36.5 % (w/w). The “direct diffusion over time” value [3] was “decreased over time”, the “intensity of direct diffusion” value [4] was “highest diffusion” and the “quantities found in the solution” value [5] was “very low”. For the same compound, the “stability in the block” value [6] was “disappeared completely” and the “direct diffusion over time” value [7] was “gradually decreased over time”.
